Results on 46 molecules are retold here after patent US9067935B2 (Janssen Pharmaceutica, NV, priority 2010, dated 2015).

In the assay the target is canine TRPM8 (Canis lupus familiaris, UniProt Q1A7N1). In words: In Vitro Canine TRPM8 Functional Assay (intracellular Ca2+ fluorescence, icilin challenge). In kind it is cell-based. Particulars: for IC50: icilin at ~80% maximal response. The procedure: The functional activity of compounds of the formula (I) was determined by measuring changes in intracellular calcium concentration using a Ca^2+-sensitive fluorescent dye. The changes in fluorescent signal were monitored by a fluorescence plate reader, either a FLIPR™ (Molecular Devices) or FDSS (Hamamatsu).
Chain of canine TRPM8 (Q1A7N1 1-1104): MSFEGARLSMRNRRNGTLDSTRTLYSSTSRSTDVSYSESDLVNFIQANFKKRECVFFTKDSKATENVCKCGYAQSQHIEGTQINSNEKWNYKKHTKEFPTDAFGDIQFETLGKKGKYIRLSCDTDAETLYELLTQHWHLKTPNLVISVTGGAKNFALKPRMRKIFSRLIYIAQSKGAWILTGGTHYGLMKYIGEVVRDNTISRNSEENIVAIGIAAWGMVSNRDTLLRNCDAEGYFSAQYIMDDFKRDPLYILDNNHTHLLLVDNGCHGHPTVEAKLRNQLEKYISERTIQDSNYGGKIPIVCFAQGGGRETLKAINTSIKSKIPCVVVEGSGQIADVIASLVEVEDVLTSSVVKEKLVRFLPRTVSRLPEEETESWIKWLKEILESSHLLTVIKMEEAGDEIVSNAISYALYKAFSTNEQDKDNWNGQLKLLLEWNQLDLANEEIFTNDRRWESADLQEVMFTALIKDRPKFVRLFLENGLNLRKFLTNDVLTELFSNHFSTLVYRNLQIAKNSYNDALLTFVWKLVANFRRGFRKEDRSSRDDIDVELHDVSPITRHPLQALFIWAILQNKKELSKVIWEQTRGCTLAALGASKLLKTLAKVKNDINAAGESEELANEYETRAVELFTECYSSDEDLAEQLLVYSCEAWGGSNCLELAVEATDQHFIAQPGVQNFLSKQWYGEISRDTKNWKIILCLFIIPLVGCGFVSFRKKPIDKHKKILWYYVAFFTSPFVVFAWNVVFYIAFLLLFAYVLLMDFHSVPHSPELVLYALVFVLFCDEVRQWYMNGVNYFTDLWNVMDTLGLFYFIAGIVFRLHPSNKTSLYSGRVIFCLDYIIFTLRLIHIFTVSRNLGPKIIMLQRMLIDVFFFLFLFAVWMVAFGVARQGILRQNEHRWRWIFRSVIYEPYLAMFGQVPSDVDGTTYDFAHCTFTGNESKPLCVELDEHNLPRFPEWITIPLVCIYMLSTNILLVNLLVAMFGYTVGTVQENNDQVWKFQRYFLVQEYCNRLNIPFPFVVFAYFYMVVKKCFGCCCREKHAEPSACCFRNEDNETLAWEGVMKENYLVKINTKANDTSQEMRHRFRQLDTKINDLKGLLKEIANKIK
At 24 hrs prior to assay, HEK293 cells stably expressing canine TRPM8 were seeded in culture medium in black wall, clear-base poly-D-lysine coated 384-well plates (BD Biosciences, NJ, USA) and grown overnight in 5% CO2 at 37° C. On assay day, growth media was removed and cells were loaded with Calcium 3 Dye (Molecular Devices) for 35 min at 37° C., under 5% CO2 and then for 25 min at room temperature and atmosphere. Subsequently, cells were tested for agonist-induced increases in intracellular Ca^2+ levels using FLIPR™ or FDSS. Cells were challenged with a compound of the Formula (I) (at varying concentrations) and intracellular Ca^2+ was measured for 5 min prior to the addition of icilin to all wells to achieve a final concentration that produces approximately an 80% maximal response. EC50 or IC50 values for compounds of the present invention were determined from eight-point dose-response studies. Curves were generated using the average of quadruplicate wells for each data point.

Where [1] appears, read: HEK293, @ 0.2 μM, HEK293 cells stably expressing canine TRPM8, read-out: % Inh (%) @ 0.2 μM.
Where [2] appears, read: HEK293 cells stably expressing canine TRPM8.

A word on the IC50: it is the midpoint of a concentration-inhibition curve.

Where “and” joins values, the source holds several entries; their conditions need not be identical. Equal values may be shown once. Read-outs that look alike come from different tables or passages of the source.

Turning to `Cc1c(N(Cc2ccc(OC(F)(F)F)cc2)S(=O)(=O)c2ccccc2)nc2ccc(Cl)cn12` [Compound 36], under setting [1], the inhibition at 0.2 µM stood at 100%. Also, the IC50 under setting [2] was found to be 22.5 nM. Taken in the same sequence, the figures for `Cc1ccn2c(C)c(N(Cc3ccc(F)c(C(F)(F)F)c3)S(=O)(=O)c3ccc(Br)cc3)nc2c1` [Compound 42] were 99% and 25.4 nM.

On to `O=S(=O)(c1ccc(-n2cccn2)cc1)N(Cc1ccc(OC(F)(F)F)cc1)c1nc2ccccn2c1Cl` [Compound 97], for which the inhibition at 0.2 µM under setting [1] came to 99%. The molecule also gave a half-inhibitory concentration (IC50) under setting [2] of 8.48 nM.

On to `Cc1c(N(Cc2ccc(F)c(Cl)c2)S(=O)(=O)c2ccccc2)nc2ccc(Cl)cn12` [Compound 46], for which, under setting [1], the inhibition at 0.2 µM was 99%. The molecule further had an IC50 under setting [2] of 13.6 nM.

Consider `O=S(=O)(c1ccc(N2CCOCC2)nc1)N(Cc1ccc(C(F)(F)F)cc1)c1nc2ccccn2c1Cl` [Compound 93], for which the inhibition at 0.2 µM under setting [1] was 98%. The IC50 under setting [2] worked out at 26.9 nM. `Cc1c(N(Cc2ccc(OC(F)(F)F)cc2)S(=O)(=O)c2ccccc2)nc2ccc(F)cn12` [Compound 19] showed a concentration for half-maximal inhibition (IC50) under setting [2] of 14.4 nM. On to `CCc1c(N(Cc2ccc(F)c(C(F)(F)F)c2)S(=O)(=O)c2ccccc2)nc2ccc(Cl)cn12` [Compound 82], for which, under setting [1], the inhibition at 0.2 µM is 100%. Also, under setting [2], the midpoint of inhibition, the IC50, lay at 14.2 nM. Take `Cc1c(N(Cc2ccc(C(F)(F)F)c(F)c2)S(=O)(=O)c2ccccc2)nc2ccc(F)cn12` [Compound 21]: the IC50 under setting [2] is 10.6 nM and 12.4 nM. With `O=S(=O)(c1ccc(N2CCOCC2)nc1)N(Cc1ccc(C(F)(F)F)c(F)c1)c1nc2ccccn2c1Br` [Compound 85], the inhibition at 0.2 µM under setting [1] was 100%. In addition, under setting [2], it took 31.2 nM to reach half-maximal inhibition (IC50). Taken in the same sequence, the figures for `CCc1c(N(CCCCC(F)(F)F)S(=O)(=O)c2ccccc2)nc2c(C(F)(F)F)cccn12` [Compound 64] were 99% and 22 nM. Taken in the same sequence, the figures for `O=S(=O)(c1ccc(-n2cccn2)cc1)N(Cc1ccc(F)c(C(F)(F)F)c1)c1nc2ccccn2c1Cl` [Compound 95] were 99% and 7 nM.

In the case of `CCc1c(N(Cc2ccc(OC(F)(F)F)cc2)S(=O)(=O)c2ccccc2)nc2c(C(F)(F)F)cccn12` [Compound 57], under setting [1], the inhibition at 0.2 µM was 82%. The 50% inhibitory concentration (IC50) under setting [2] is 96.6 nM.

On to `O=S(=O)(c1ccccc1)N(Cc1ccc(C(F)(F)F)c(F)c1)c1nc2ccc(Cl)cn2c1Cl` [Compound 29], for which the inhibition at 0.2 µM under setting [1] was found to be 90%. The molecule also returned an IC50 under setting [2] of 32.2 nM. The corresponding values for `Cc1ccc2nc(N(Cc3ccc(C(F)(F)F)c(F)c3)S(=O)(=O)c3ccc(F)cc3)c(C)n2c1` [Compound 68] are 100% and 41.6 nM. For the molecule `CCc1c(N(CCC(F)(F)F)S(=O)(=O)c2ccccc2)nc2c(C(F)(F)F)cccn12` [Compound 66], the inhibition at 0.2 µM under setting [1] came out at 83%. For `Cc1ccn2c(C)c(N(Cc3ccc(C(F)(F)F)c(F)c3)S(=O)(=O)c3ccccc3)nc2c1` [Compound 27], the inhibition at 0.2 µM under setting [1] worked out at 100%. Moreover, under setting [2], the IC50 is 6.11 nM. For the molecule `Cc1ccn2c(C)c(N(Cc3ccc(OC(F)(F)F)cc3)S(=O)(=O)c3ccccc3)nc2c1` [Compound 26], under setting [1], the inhibition at 0.2 µM was 100%. For the same molecule, 10.1 nM corresponded to half-maximal inhibition under setting [2] (IC50). The corresponding values for `O=S(=O)(c1ccc(-n2cccn2)cc1)N(Cc1ccc(C(F)(F)F)c(F)c1)c1nc2ccccn2c1Br` [Compound 75] are 99% and 1.94 nM.

On to `CC(C)c1c(N(Cc2ccc(C(F)(F)F)cc2)S(=O)(=O)c2ccccc2)nc2ccccn12` [Compound 53], for which the inhibition at 0.2 µM under setting [1] amounted to 101%. This molecule had an IC50 under setting [2] of 3.19 nM. Taken in the same sequence, the figures for `Cc1ccn2c(C)c(N(Cc3ccc(OC(F)(F)F)cc3)S(=O)(=O)c3ccc(F)cc3)nc2c1` [Compound 67] were 96% and 62.1 nM. On to `COC(=O)c1ccc(S(=O)(=O)N(Cc2ccc(OC(F)(F)F)cc2)c2nc3ccccn3c2C(C)C)cc1` [Compound 108], for which, under setting [2], the “% Inh (%) @ 0.2 μM” value came out at 101% and it took 10.4 nM to reach half-maximal inhibition (IC50). With `Cc1cccn2c(C)c(N(Cc3ccc(OC(F)(F)F)cc3)S(=O)(=O)c3ccccc3)nc12` [Compound 30], the inhibition at 0.2 µM under setting [1] amounted to 100%. In addition, under setting [2], the IC50 came out at 10 nM. The corresponding values for `COC(=O)c1ccc(S(=O)(=O)N(Cc2ccc(F)c(F)c2)c2nc3ccc(Cl)cn3c2C)cc1` [Compound 111] are 73% and 81.5 nM. Taken in the same sequence, the figures for `Cc1c(N(Cc2ccc(C(F)(F)F)cc2)S(=O)(=O)c2ccc(-n3cccn3)cc2)nc2ccc(Cl)cn12` [Compound 105] were 98% and 30.3 nM. For `Cc1c(N(Cc2ccc(F)c(F)c2)S(=O)(=O)c2ccc(C(=O)O)cc2)nc2ccc(Cl)cn12` [Compound 114], the inhibition at 0.2 µM (HEK293, read-out: % Inh (%) @ 0.2 μM) was 38%. For the molecule `O=S(=O)(c1ccccc1)N(Cc1ccc(C(F)(F)F)c(F)c1)c1nc2ccccn2c1C1CC1` [Compound 70], the inhibition at 0.2 µM under setting [1] stood at 101%. In addition, the IC50 under setting [2] was 8.21 nM. The corresponding values for `O=S(=O)(c1ccc(-n2cccn2)cc1)N(Cc1ccc(C(F)(F)F)cc1)c1nc2ccccn2c1Cl` [Compound 98] are 99% and 4.04 nM. With `O=S(=O)(c1ccccc1)N(Cc1ccc(F)c(C(F)(F)F)c1)c1nc2ccccn2c1C1CC1` [Compound 69], under setting [2], the “% Inh (%) @ 0.2 μM” value came to 101% and the IC50 came out at 28.2 nM. Turning to `COC(=O)c1ccc(S(=O)(=O)N(Cc2ccc(F)c(C(F)(F)F)c2)c2nc3ccc(F)cn3c2C)cc1` [Compound 119, Methyl 4-(N-(6-fluoro-3-methylimidazo[1,2-a]pyridin-2-yl)-N-(4-fluoro-3-(trifluoromethyl)benzyl)sulfamoyl)benzoate], the inhibition at 0.2 µM under setting [1] turned out to be 100%. Besides, it took 23.9 nM to reach half-maximal inhibition under setting [2] (IC50).

For `O=S(=O)(c1ccccc1)N(Cc1ccc(OC(F)(F)F)cc1)c1nc2ccc(C(F)(F)F)cn2c1Cl` [Compound 61], the inhibition at 0.2 µM under setting [1] stood at 47%. Turning to `O=S(=O)(c1ccc(N2CCOCC2)nc1)N(Cc1ccc(OC(F)(F)F)cc1)c1nc2ccc(Cl)cn2c1Cl` [Compound 76], the inhibition at 0.2 µM under setting [1] was 72%. Besides, under setting [2], the IC50 turned out to be 70.5 nM.

Regarding `Cc1ccn2c(C)c(N(Cc3ccc(F)c(C(F)(F)F)c3)S(=O)(=O)c3ccccc3)nc2c1` [Compound 28], the inhibition at 0.2 µM under setting [1] amounted to 100%. For the same molecule, inhibition under setting [2] was half-maximal at 8.01 nM (IC50). Under setting [2], `O=S(=O)(c1ccccc1)N(Cc1ccc(F)c(C(F)(F)F)c1)c1nc2ccccn2c1Cl` [Compound 1] came in with a 50% inhibitory concentration (IC50) of 3.25 nM. As for `Cc1c(N(Cc2ccc(OC(F)(F)F)cc2)S(=O)(=O)c2ccc(-n3cccn3)cc2)nc2ccc(Cl)cn12` [Compound 104], under setting [1], the inhibition at 0.2 µM was 93%. The IC50 under setting [2] was determined as 51.6 nM. Taken in the same sequence, the figures for `Cc1ccc2nc(N(Cc3ccc(C(F)(F)F)c(F)c3)S(=O)(=O)c3ccccc3)c(C)n2c1` [Compound 41] were 100% and 25.3 nM.

For the molecule `O=S(=O)(c1ccccc1)N(Cc1ccc(OC(F)(F)F)cc1)c1nc2ccc(Cl)cn2c1Cl` [Compound 7], the midpoint of inhibition under setting [2], the IC50, lay at 29.8 nM. On to `Cc1c(N(Cc2ccc(C(F)(F)F)c(F)c2)S(=O)(=O)c2ccccc2)nc2cc(C(F)(F)F)ccn12` [Compound 101], for which, under setting [1], the inhibition at 0.2 µM was 22%. Consider `Cc1c(N(Cc2ccc(F)c(C(F)(F)F)c2)S(=O)(=O)c2ccc(-n3cccn3)cc2)nc2ccc(Cl)cn12` [Compound 102, N-(6-chloro-3-methylimidazo[1,2-a]pyridin-2-yl)-N-(4-fluoro-3-trifluoromethylbenzyl)-4-(1H-pyrazol-1-yl)benzenesulfonamide], for which, under setting [1], the inhibition at 0.2 µM stood at 100%. The same molecule gave an IC50 under setting [2] of 21.8 nM. Turning to `O=S(=O)(c1ccc(-n2cccn2)cc1)N(Cc1cccc(C(F)(F)F)c1)c1nc2ccccn2c1Cl` [Compound 99], the inhibition at 0.2 µM under setting [1] came out at 99%. Under setting [2], this molecule gave a concentration for half-maximal inhibition (IC50) of 15.1 nM. The corresponding values for `Cc1ccc2nc(N(Cc3ccc(OC(F)(F)F)cc3)S(=O)(=O)c3ccccc3)c(C)n2c1` [Compound 39] are 99% and 28.9 nM. With `O=S(=O)(c1ccccc1)N(Cc1ccc(C(F)(F)F)c(F)c1)c1nc2ccc(C(F)(F)F)cn2c1Cl` [Compound 60, N-(3-Chloro-6-trifluoromethylimidazo[1,2-a]pyridin-2-yl)-N-(3-fluoro-4-trifluoromethylbenzyl)benzenesulfonamide], the inhibition at 0.2 µM under setting [1] worked out at 55%. As to `Cc1c(N(Cc2ccc(F)c(C(F)(F)F)c2)S(C)(=O)=O)nc2ccc(F)cn12` [Compound 23], the inhibition at 0.2 µM under setting [1] was found to be 58%. In the case of `Cc1c(N(Cc2ccc(OC(F)(F)F)cc2)S(=O)(=O)c2ccc(C(=O)O)cc2)nc2c(F)cccn12` [Compound 122], under setting [2], the “% Inh (%) @ 0.2 μM” value is 99% and half-maximal inhibition (IC50) was put at 4.03 nM.

Under setting [2], `O=S(=O)(c1ccc(F)cc1)N(Cc1ccc(OC(F)(F)F)cc1)c1nc2ccccn2c1Cl` [Compound 9] showed an IC50 of 13.6 nM. With `COC(=O)c1ccc(S(=O)(=O)N(Cc2ccc(F)c(C(F)(F)F)c2)c2nc3ccc(Cl)cn3c2C)cc1` [Compound 112], the inhibition at 0.2 µM under setting [1] was 83%. Moreover, it took 82.1 nM to reach half-maximal inhibition under setting [2] (IC50). `Cc1c(N(Cc2ccc(C(F)(F)F)c(F)c2)S(=O)(=O)c2ccc(-n3cccn3)cc2)nc2ccc(Cl)cn12` [Compound 103]: under setting [1], the inhibition at 0.2 µM turned out to be 98%. Under setting [2], this molecule had an IC50 of 24.5 nM.
